Test results from ChEMBL document CHEMBL6182843, “Actinomycetes: Treasure trove for discovering novel antibiotic candidates” (2025).
≈ marks a conversion by molar mass, not a printed value.

Tests used:
Type in all cases: functional
[1] = tested on: Xanthomonas oryzae; experiment: Antibacterial activity against Xanthomonas oryzae
[2] = tested on: Xanthomonas campestris; experiment: Antibacterial activity against Xanthomonas campestris
[3] = tested on: Staphylococcus aureus; experiment: Antibacterial activity against methicillin-resistant Staphylococcus aureus ATCC 43300 assessed as reduction in bacterial growth measured for 12 hrs by CLSI protocol based broth microdilution method
[4] = tested on: Staphylococcus aureus; experiment: Antibacterial activity against methicillin-resistant Staphylococcus aureus
[5] = tested on: Staphylococcus aureus; experiment: Antibacterial activity against Staphylococcus aureus
[6] = tested on: Escherichia coli; experiment: Antibacterial activity against Escherichia coli
[7] = tested on: Bacillus cereus; experiment: Antibacterial activity against Bacillus cereus
[8] = tested on: Bacillus subtilis; experiment: Antibacterial activity against Bacillus subtilis
[9] = tested on: Enterococcus faecalis; experiment: Antibacterial activity against Vancomycin-resistant Enterococcus faecalis ATCC 51299
[10] = tested on: Staphylococcus aureus; experiment: Antibacterial activity against Staphylococcus aureus ATCC 33591
[11] = tested on: Escherichia coli; experiment: Antibacterial activity against […] Escherichia coli ATCC 25922 assessed as reduction in bacterial growth measured for 12 hrs by CLSI protocol based broth microdilution method
[12] = tested on: Staphylococcus aureus; experiment: Antimicrobial activity against Staphylococcus aureus ATCC 29213 assessed as reduction in microbial growth incubated for 16 hrs by CLSI protocol based Mueller-Hinton broth micro-dilution method
[13] = tested on: Staphylococcus epidermidis; experiment: Antimicrobial activity against Staphylococcus epidermidis ATCC 12228 assessed as reduction in microbial growth incubated for 16 hrs by CLSI protocol based Mueller-Hinton broth micro-dilution method
[14] = tested on: Staphylococcus aureus; experiment: Antibacterial activity against Staphylococcus aureus ATCC 33592 assessed as reduction in microbial growth
[15] = tested on: Bacillus subtilis; experiment: Antibacterial activity against Bacillus subtilis ATCC 6633 assessed as reduction in microbial growth
[16] = tested on: Staphylococcus aureus; experiment: Antibacterial activity against Staphylococcus aureus ATCC 25923 assessed as reduction in microbial growth

CO[C@H]1/C=C\C=C(/C)C(=O)NC2=CC(=O)C(O)=C(C[C@@H](C)C[C@H](OC)[C@H](O)[C@@H](C)/C=C(\C)[C@@H]1OC(N)=O)C2=O
MIC [1]: 0.125 µg/mL (≈ 0.229 µM) | MIC [2]: 0.25 µg/mL (≈ 0.457 µM)

CO[C@H]1C[C@H](C)Cc2cc(O)cc(c2)NC(=O)/C(C)=C/CC[C@H](OC)[C@@H](OC(N)=O)/C(C)=C/[C@H](C)[C@H]1O
MIC [1]: 0.25 µg/mL (≈ 0.482 µM) | MIC [2]: 2.03 µg/mL (≈ 3.91 µM)

CC(=O)c1cc(C)c(C)n1CCc1c[nH]c2ccccc12
MIC [3]: 25 µg/mL (≈ 89.2 µM)

CC(C)c1cc(=O)c2c(cc(O)c3c(=O)c4c(O)c(Br)ccc4c(=O)c32)c1=O
MIC [4]: 0.098 µg/mL

CC[C@@H]1NC(=O)[C@@H](CC(C)C)NC(=O)C(NC(=O)[C@@H](CC(=O)C(CC(=O)C(CC(O)c2ccccc2)NC(=O)[C@@H](CCCN)NC(=O)CCNC(=O)/C=C\C=C\C(C)C)C(O)CC(=O)O)Cc2ccc(O[C@@H]3OC[C@H](O)[C@H](O)[C@H]3O)cc2)C(C)NC(=O)[C@@H]2CCCN2C(=O)[C@H](C)NC(=O)[C@H](CC(=O)c2ccc(Cl)cc2N)NC(=O)CNC(=O)[C@H](CO)NC(=O)CNC1=O (some centres not stated)
MIC [5]: 0.5 µg/mL (≈ 0.275 µM) | MIC [6]: > 64 µg/mL

CC1=C(CC2=C(O)C(=O)c3cc(O)c(C)c(O)c3C2=O)CCC(C)(C)C1
MIC [7]: 6.25 µg/mL (≈ 17.5 µM)

CCc1c(Cc2ccccc2)oc(=O)c(CC)c1O
MIC [8]: > 50 µg/mL | MIC [4]: 12.5 µg/mL

COc1cc2oc3c(O)c4c(c(O)c3c(=O)c2cc1O)-c1c(cc2cc(C)n(CCO)c(=O)c2c1O)CC4
MIC [9]: 0.25 µg/mL (≈ 0.483 µM) | MIC [10]: 0.25 µg/mL (≈ 0.483 µM)

C=CC(C)(C)ON(CCCCCCC(O)CCCCCc1nc(CCCNC(=N)NCC=C(C)C)c(OC)nc1CCCNC(=N)NCC=C(C)C)C(=N)N (configuration not stated)
MIC [6]: 1 µg/mL | MIC [4]: 1 µg/mL

COC(=O)c1csc(-c2nc3c(-c4ccc(OC)cc4)c(OC)c(O)c(-c4ccc(OC)cc4)c3s2)n1
MIC [8]: 0.8 µg/mL (≈ 1.5 µM) | MIC [6]: 0.8 µM | MIC [4]: > 50 µg/mL

COC(=O)[C@]1(O)C[C@@H](C)C[C@H](OC)[C@H](O)[C@@H](C)C/C=C(/C)[C@H](OC(N)=O)[C@@H](OC)/C=C\C=C(/C)C(=O)NC2=CC(=O)O[C@]21O
MIC [1]: 2.03 µg/mL (≈ 3.25 µM) | MIC [2]: 16.2 µg/mL (≈ 26 µM)

CC(=O)NCCc1c(CC2c3ccccc3[C@]3(O)CCN(C(C)=O)[C@@]23O)[nH]c2ccccc12 (some centres not stated)
MIC [11]: 13 µg/mL (≈ 29 µM) | MIC [3]: 25 µg/mL (≈ 55.9 µM)

COc1cc2oc3c(c(=O)c2cc1O)C(=O)C1=C(CCc2cc4cc(C)n(CCO)c(=O)c4c(O)c21)C3=O
MIC [9]: 0.25 µg/mL (≈ 0.485 µM) | MIC [10]: 0.12 µg/mL (≈ 0.233 µM)

C/C=C1\NC(=O)[C@@H](CC)NC(=O)CNC(=O)[C@@](C)(C(C)=O)NC(=O)[C@H](Cc2c[nH]c3ccc(O)c(OC)c23)NC(=O)c2csc(n2)[C@@H](C)NC(=O)CNC1=O
MIC [12]: 200 µg/mL | MIC [13]: 12.5 µM

C/C=C1\NC(=O)[C@@H](C)NC(=O)CNC(=O)[C@@](C)(C(C)=O)NC(=O)[C@H](Cc2c[nH]c3cccc(OC)c23)NC(=O)c2csc(n2)[C@@H](C)NC(=O)CNC1=O
MIC [12]: 12.5 µg/mL | MIC [13]: 50 µM

CC(=O)NCCc1c(CN2c3ccccc3[C@@]3(O)CCN(C(C)=O)[C@]23O)[nH]c2ccccc12
MIC [11]: 25 µg/mL (≈ 55.7 µM) | MIC [3]: 7 µg/mL (≈ 15.6 µM)

C=CC(C)(C)ON(CCCCCCCCCCCC(O)c1nc(CCCNC(=N)N)c(OC)nc1CCCNC(=N)N)C(=N)N (configuration not stated)
MIC [6]: 1.5 µg/mL | MIC [4]: 0.8 µg/mL

CC[C@@H]1NC(=O)[C@@H](CC(C)C)NC(=O)C(NC(=O)[C@@H](CC(=O)C(CC(=O)C(CC(O)c2ccccc2)NC(=O)[C@@H](CCCNC(=O)CCN)NC(=O)CCNC(=O)/C=C\C=C\C(C)C)C(O)CC(=O)O)Cc2ccc(O[C@@H]3OC[C@H](O)[C@H](O)[C@H]3O)cc2)C(C)NC(=O)[C@@H]2CCCN2C(=O)[C@H](C)NC(=O)[C@H](CC(=O)c2ccc(Cl)cc2N)NC(=O)CNC(=O)[C@H](CO)NC(=O)CNC1=O (some centres not stated)
MIC [5]: 1 µg/mL (≈ 0.53 µM) | MIC [6]: > 64 µg/mL

CC(=O)NC(CSc1c(C(C)C)c(=O)c2cc(O)c3c(=O)c4c(O)cccc4c(=O)c3c2c1=O)C(=O)O (configuration not stated)
MIC [4]: 0.195 µg/mL

CC[C@H]1NC(=O)CNC(=O)[C@@](C)(C(C)=O)NC(=O)[C@H](Cc2c[nH]c3cccc(OC)c23)NC(=O)c2csc(n2)[C@@H](C)NC(=O)CNC(=O)/C(=C/CO)NC1=O
MIC [12]: 25 µg/mL | MIC [13]: 1.6 µM

COC(=O)CCSC1=C(c2ccc(OC)cc2)C(O)C(OC)=C(c2ccc(OC)cc2)C1=O (configuration not stated)
MIC [4]: 12.5 µM

COc1cc2oc3c(O)c4c(c(O)c3c(=O)c2cc1O)-c1c(cc2cc(C)[nH]c(=O)c2c1O)CC4
MIC [9]: 0.03 µg/mL (≈ 0.0634 µM) | MIC [10]: 0.03 µg/mL (≈ 0.0634 µM)

C/C=C1\NC(=O)[C@@H](CC)NC(=O)CNC(=O)[C@@](C)(C(C)=O)NC(=O)[C@H](Cc2c[nH]c3cccc(OC)c23)NC(=O)c2csc(n2)[C@@H](C)NC(=O)CNC1=O
MIC [12]: 3.1 µg/mL | MIC [13]: 1.6 µM

C=CC(C)(C)ON(CCCCCCC(O)CCCCC(O)c1nc(CCCNC(=N)NCC=C(C)C)c(OC)nc1C(O)CCNC(=N)NCC=C(C)C)C(=N)N (configuration not stated)
MIC [6]: 2 µg/mL | MIC [4]: 2 µg/mL

COC(=O)/C(C)=C/CC[C@H](OC)[C@@H](OC(N)=O)/C(C)=C/[C@H](C)[C@@H](O)[C@H](C[C@H](C)CC1=C(OC)C(=O)C2=C(NC(=O)[C@@H](C)S2)C1=O)OC
MIC [8]: 64 µg/mL (≈ 94 µM) | MIC [5]: 64 µg/mL (≈ 94 µM)

COC(=O)[C@@]1(O)C[C@@H](C)C[C@H](OC)[C@H](O)[C@@H](C)C/C=C(/C)[C@H](OC(N)=O)[C@@H](OC)/C=C\C=C(/C)C(=O)NC2=CC(=O)O[C@]21O
MIC [1]: 4.06 µg/mL (≈ 6.5 µM) | MIC [2]: 8.12 µg/mL (≈ 13 µM)

COc1cc2oc3c(c(=O)c2cc1O)C(=O)C1=C(CCc2cc4cc(C)[nH]c(=O)c4c(O)c21)C3=O
MIC [9]: 0.25 µg/mL (≈ 0.53 µM) | MIC [10]: 0.12 µg/mL (≈ 0.255 µM)

CC[C@H](C)[C@@H]1NC(=O)[C@@H](Cc2c[nH]c3cc(Cl)ccc23)NC(=O)[C@@H](Cc2c[nH]c3ccc(Cl)cc23)NC(=O)[C@@H](CO)NC(=O)[C@@H](CCC(=O)O)NC(=O)[C@@H](C(C)C)NC1=O
MIC [14]: 1.6 µg/mL | MIC [15]: 1.6 µg/mL | MIC [16]: 3.1 µg/mL

C=CC(C)(C)ON(CCCCCCC(O)CCCCC(O)c1nc(CCCNC(=N)NCC=C(C)C)c(OC)nc1CCCNC(=N)NCC=C(C)C)C(=N)N (configuration not stated)
MIC [6]: 4 µg/mL | MIC [4]: 3 µg/mL

O=C1c2ccc3cc([C@@H](O)CO)cc(O)c3c2C(=O)c2cccc(O)c21
MIC [8]: 0.78 µg/mL (≈ 2.23 µM) | MIC [6]: 1.56 µg/mL | MIC [4]: 0.39 µg/mL

COC1=C(CC2=C(C)CC(C)(C)CC2)C(=O)c2c(cc(O)c(C)c2O)C1=O
MIC [7]: 50 µg/mL (≈ 135 µM)

CSc1c(C(C)C)c(=O)c2cc(O)c3c(=O)c4c(O)cccc4c(=O)c3c2c1=O
MIC [4]: 3.12 µg/mL

C=CC(C)(C)ON(CCCCCCCCCCCC(O)c1nc(CCCNC(=N)NCC=C(C)C)c(OC)nc1C(O)CCNC(=N)NCC=C(C)C)C(=N)N (configuration not stated)
MIC [6]: 0.5 µg/mL | MIC [4]: 0.5 µg/mL

CC(=O)[C@@H](C)N(CCc1c[nH]c2ccccc12)C(C)=O
MIC [11]: 7 µg/mL (≈ 25.7 µM)

C=CC(C)(C)ON(CCCCCCCCCCCCc1nc(CCCNC(=N)N)c(OC)nc1CCCNC(=N)N)C(=N)N
MIC [6]: 1 µg/mL | MIC [4]: 1 µg/mL

Cc1c(O)cc2c(c1O)C(=O)C(C[C@@]13CCC(C)(C)C[C@]1(C)O3)=C(Cl)C2=O
MIC [5]: 25 µg/mL (≈ 64 µM) | MIC [7]: 12.5 µg/mL (≈ 32 µM)

C[C@H]1[C@H](NC(=O)/C(=N\OC(C)(C)C(=O)O)c2csc(N)n2)C(=O)N1S(=O)(=O)O [AZTREONAM]
MIC [6]: 0.25 µg/mL | MIC [4]: 0.25 µg/mL

O=C(N[C@H](CO)[C@H](O)c1ccc([N+](=O)[O-])cc1)C(Cl)Cl [CHLORAMPHENICOL]
MIC [4]: 3.12 µg/mL

COc1c(O)cc2cc1C[C@@H](C)C[C@H](OC)[C@H](O)[C@@H](C)/C=C(\C)[C@H](OC(N)=O)[C@@H](OC)CC/C=C(\C)C(=O)N2 [REBLASTATIN]
MIC [1]: 4.06 µg/mL (≈ 7.4 µM) | MIC [2]: 0.125 µg/mL (≈ 0.228 µM)
